The text below walks through data of PubChem BioAssay AID1996.

Molecules are shown by their SMILES. Values after ≈ are worked out from the molar mass of the structure shown. Bounds are passed on as bounds.

The kinetic solubility is the concentration staying in solution when a stock, usually in DMSO, is diluted into the medium.

The conditions of the series: buffer; pH 7.4; 200.0 µM.
As for `O=C(CN1c2cccc3cccc(c23)S1(=O)=O)NCCc1ccccc1`, the kinetic solubility is 2 µg/mL (≈ 5.46 µM). The same measure for `CC1CCCC(C)N1C(=O)COC(=O)c1cncc(Br)c1` (configuration not stated): over 53.3 µg/mL; for `COc1cc(OC)cc(C(=O)NCCCCc2ccccc2)c1`: 1.3 µg/mL (≈ 4.15 µM). Compound `CC(C)c1nnc(NC(=O)CCC(=O)NC2CC2)s1` displayed a kinetic solubility of over 42.4 µg/mL. Consider `CCOCCCNc1ncnc2c1nc1n2CCCC1`, for which the kinetic solubility is over 41.3 µg/mL. Compound `Cc1nc(N2CCOCC2)nc(Oc2ccccc2F)c1[N+](=O)[O-]` came in with a solubility (kinetic) of 1.5 µg/mL (≈ 4.49 µM). In turn, `CC1CC(OC(=O)c2ccccc2)(c2ccccc2)C(C)CN1C` (configuration not stated) came in with a kinetic solubility of over 48.5 µg/mL.

Consider `CCN(C(=O)COC(=O)c1ccc(SC)cc1OC)C1CCS(=O)(=O)C1` (configuration not stated), for which the kinetic solubility is over 60.2 µg/mL. The compound `O=C1NC(=O)/C(=C/c2ccccn2)S1` had a kinetic solubility of over 30.9 µg/mL. Turning to `O=C(COC(=O)CCc1ccc(S(=O)(=O)N2CCOCC2)cc1)Nc1ccccc1OC(F)F`, the solubility (kinetic) turned out to be 49.5 µg/mL (≈ 99.3 µM). `CCCOc1cccc(C(=O)Nc2cccc3ncccc23)c1`: the solubility (kinetic) was determined as 7.6 µg/mL (≈ 24.8 µM). On to `CC#CC[N+](C)(C)CC(=O)c1ccccc1.[Br-]`, for which the solubility (kinetic) was over 44.4 µg/mL. Turning to `COc1ccc2nc(C)cc(N3CCC(C(N)=O)CC3)c2c1`, the kinetic solubility came out at 42.3 µg/mL (≈ 141 µM). `COc1ccc(C(=O)Nc2cc(C)c(NC(=O)c3ccccn3)cn2)cc1` displayed a kinetic solubility of 1.9 µg/mL (≈ 5.24 µM). As for `CC(NC(=O)c1ccc(F)cc1)C(=O)NC1=NCCS1` (configuration not stated), the kinetic solubility was over 44.3 µg/mL. On to `COC(=O)c1ccccc1NC(=O)Nc1ccc(Cl)cn1`, for which the kinetic solubility is over 45.9 µg/mL. The compound `CC(=O)Nc1ccc(SCc2ncc(-c3ccccc3)o2)cc1` came in with a kinetic solubility of 45.3 µg/mL (≈ 140 µM).

Take `COc1ccc(C2C3=C(CCCC3=O)NC3=C2C(=O)c2ccccc23)cc1` (configuration not stated): the kinetic solubility was under 0.8 µg/mL.

As for `CC1(c2ccccc2)NC(=O)N(CC#N)C1=O` (configuration not stated), the solubility (kinetic) was 34.3 µg/mL (≈ 150 µM). On to `CC(=O)c1c(C)[nH]c(C(=O)Nc2cccc(S(=O)(=O)N3CCCC3)c2)c1C`, for which the solubility (kinetic) turned out to be 7 µg/mL (≈ 18 µM). `Cc1cc(=O)oc2cc(NC(=O)Cc3ccccc3[N+](=O)[O-])ccc12` gave a solubility (kinetic) of 0.9 µg/mL (≈ 2.66 µM). Against the preceding compound, the solubility kinetic is about 7.8-fold lower. For `CC(=O)NCCC(=O)Nc1nc2c(ccc3ccccc32)s1`, the kinetic solubility turned out to be 1.7 µg/mL (≈ 5.42 µM). For `COC(=O)c1c(NC(=O)c2ccccc2)sc(C(N)=O)c1C`, the solubility (kinetic) came out at 1.8 µg/mL (≈ 5.65 µM). The solubility kinetic values of the last two compounds are within 1.5-fold of each other. For the compound `CCP(=O)(c1cccc([N+](=O)[O-])c1)c1cccc([N+](=O)[O-])c1`, the solubility (kinetic) was over 48 µg/mL. The same measure for `O=C(c1cccs1)N1CCN(c2cccc(Cl)c2)CC1`: 26.3 µg/mL (≈ 85.7 µM). `O=C(c1cc(F)c(F)c(F)c1F)N1CCN(C(=O)C2CCCO2)CC1` (configuration not stated) came in with a kinetic solubility of over 54 µg/mL.

`COc1ccc(Cl)cc1NCCC(O)c1ccc(F)cc1` (configuration not stated) came in with a kinetic solubility of 24.7 µg/mL (≈ 79.7 µM).

Compound `O=Cc1ccc(C(=O)OCC(=O)N2CCCC2)cc1` gave a kinetic solubility of 36.3 µg/mL (≈ 139 µM). As to `Cc1cc(=O)oc2cc(OCC(=O)NC3CCCC3)ccc12`, the solubility (kinetic) stood at 22.9 µg/mL (≈ 76 µM).

For `Cc1ccccc1OCC(=O)Nc1ccc([N+](=O)[O-])cc1`, the solubility (kinetic) worked out at 0.4 µg/mL (≈ 1.4 µM). `O=C(COc1ccc(Oc2ccccc2)cc1)NC1CCS(=O)(=O)C1` (configuration not stated) registered a solubility (kinetic) of over 54.2 µg/mL.

Compound `O=C1[C@H](O)[C@@H](O)C(=O)N1Cc1ccccc1` returned a kinetic solubility of over 33.2 µg/mL. `COC(=O)c1cc(OC)c(OC)cc1NC(=S)N1CCCC1`: the kinetic solubility amounted to 6.3 µg/mL (≈ 19.4 µM).

As for `Cc1ccnc(NS(=O)(=O)c2ccccc2)c1`, the kinetic solubility came out at 31.3 µg/mL (≈ 126 µM).

`Cc1cc(Cl)ccc1NC(=O)C1CCN(S(C)(=O)=O)CC1` registered a solubility (kinetic) of 10.8 µg/mL (≈ 32.6 µM). With `O=[N+]([O-])c1ccc(NCCc2ccccc2)c(Br)c1`, the solubility (kinetic) stood at 0.7 µg/mL (≈ 2.18 µM).

As to `Oc1ccccc1C=NCCN=Cc1ccccc1O`, the kinetic solubility amounted to 27.6 µg/mL (≈ 103 µM). As for `Cc1ccnc(NC(=O)c2ccc(Cl)cc2Cl)n1`, the kinetic solubility is 31.7 µg/mL (≈ 112 µM). Turning to `COc1ccccc1CN(C)C(=O)COC(=O)c1ccc(Cl)nc1`, the kinetic solubility is over 52.3 µg/mL. On to `COc1ccccc1NC(=O)C[n+]1ccccc1C.[Cl-]`, for which the solubility (kinetic) turned out to be 41 µg/mL. The same measure for `Clc1ccc(CNc2ncccn2)cc1`: 24.4 µg/mL (≈ 111 µM); for `CC(c1ccccc1)n1cnc2ccccc2c1=O` (configuration not stated): over 37.5 µg/mL. `COc1ccc(CCCC(=O)Nc2cc(C)ccc2OC)cc1` had a solubility (kinetic) of 20 µg/mL (≈ 63.8 µM).

Regarding `COc1cc2c(cc1OC)C(c1ccccc1Cl)N(C)CC2` (configuration not stated), the solubility (kinetic) stood at 36.4 µg/mL (≈ 115 µM). The same measure for `COc1ccccc1C1=NOC(CN2C(=O)c3ccccc3S2(=O)=O)C1` (configuration not stated): 34.6 µg/mL (≈ 92.9 µM); for `CCOc1ccc(S(=O)(=O)NCCC(=O)N2CCC(Cc3ccccc3)CC2)cc1`: 12.8 µg/mL (≈ 29.7 µM). As for `CCOC(=O)C1(Cc2ccccc2)CCCN(CCO)C1` (configuration not stated), the kinetic solubility is over 43.7 µg/mL.

Compound `CCCCC(CC)CNC(=O)Cn1c(=O)[nH]c2ccsc2c1=O` (configuration not stated) yielded a kinetic solubility of 33.5 µg/mL (≈ 99.3 µM). With `COc1cccc(NC(=O)C(C)SCc2ccccc2)c1` (configuration not stated), the solubility (kinetic) is over 45.2 µg/mL. For `CCOc1ncccc1C(=O)OCC(=O)Nc1ccc(Cl)cn1`, the kinetic solubility stood at 15 µg/mL (≈ 44.7 µM). For `CCCOc1ccc(C(=O)OCCN(CC)CC)cc1N.Cl`, the solubility (kinetic) was over 49.6 µg/mL. Compound `CN(Cc1ccccc1)C(=O)COC(=O)CN1C(=O)c2ccccc2C1=O` gave a solubility (kinetic) of over 55 µg/mL.
